From patent US9757369B2, “Heterocyclic GSK-3 allosteric modulators” (Consejo Superior de Investigaciones Cientificas (CSIC), priority 2011, dated 2017)
Entries after “also recorded” stand apart in the source; their conditions may differ.

test system: GSK-3β; test: Kinetic study varying GS-2 peptide substrate concentration (double-reciprocal plot); format: biochemical, human; details: GS-2 15.5 to 100 μM, ATP 1 μM, inhibitor 5 to 10 μM
Procedure: The GS-2 concentrations were varied from 15.5 to 100 µM, whereas the ATP concentration was kept constant at 1 µM. The concentrations of inhibitor (compound 6) used are shown in the plot.
On the other hand, we also studied the dependence of GSK-3β activity in the presence of these inhibitors as a function of the concentration of the substrate, the GS-2 peptide, used in the assays.

With CCCCCCCCCCCC(=O)NNC(=O)c1c(O)c2ccccc2n(CC)c1=O [Compound 6, N′-Dodecanoyl-1-ethyl-4-hydroxy-2-oxo-1,2-dihydroquinoline-3-carbohydrazide] the “mode of inhibition versus substrate GS-2” value was “substrate-non-competitive inhibitor”.

target: recombinant human GSK3 enzyme (GSK-3β) (Homo sapiens, UniProt P49841); test: Measurement of the inhibition of GSK-3β (Kinase-Glo luminometric assay); format: biochemical; details: 25 μM substrate, 1 μM ATP, 30 min at 30 °C
Procedure: The enzyme inhibition assays were performed using the luminometric methodology of Kinase-Glo®. […] The luminescent kinase kit (catalogue no. V6711) was obtained from Promega. The ATP and the other reagents were purchased from Sigma-Aldrich (St. Louis, Mo.).
The assays were performed in buffer using 96-well plates. 10 µl of the compound to be assayed (dissolved in DMSO at a concentration of 1 mM, and, in turn, dissolved in buffer to the concentration necessary for the experiment) and 10 µl (20 ng) of the enzyme are added to each well, followed by 20 µl of buffer containing 25 µM of the substrate and 1 µM of ATP. […] Following a half-hour incubation at 30° C., the enzymatic reaction is stopped with 40 µl of the Kinase-Glo® reagent. The luminescence is measured after ten minutes, using a POLARstar Optima multimode reader. The activity is proportional to the difference between the total ATP and the ATP consumed. The inhibitory activities were calculated as a function of the maximum activity, measured in the absence of inhibitor.

CCCCCCCC(=O)NNC(=O)c1c(O)c2ccccc2n(C)c1=O [Compound 3, 4-Hydroxy-1-methyl-N′-octanoyl-2-oxo-1,2-dihydroquinoline-3-carbohydrazide] and CCCCCCCCCCCC(=O)NNC(=O)c1c(O)c2ccccc2n(C)c1=O [Compound 4, N′-Dodecanoyl-4-hydroxy-1-methyl-2-oxo-1.2-dihydroquinoline-3-carbohydrazide] are within 1.5-fold of each other in IC50: 8.67 ± 0.4 µM for the first, 7.35 ± 0.23 µM for the second.

Going from CCCCCCCCCCCC(=O)NNC(=O)c1c(O)c2ccccc2n(CC)c1=O [Compound 6, N′-Dodecanoyl-1-ethyl-4-hydroxy-2-oxo-1,2-dihydroquinoline-3-carbohydrazide] to CCCCCCCCCCCC(=O)NNC(=O)c1c(O)c2ccccc2n(CC2CC2)c1=O [Compound 45, 1-(cyclopropylmethyl)-N′-dodecanoyl-4-hydroxy-2-oxo-1,2-dihydroquinoline-3-carbohydrazide], the IC50 rises from 2.85 ± 0.36 µM to 5.25 ± 0.58 µM (1.8-fold). The first is the more potent here.

CCCCCCCCCCCC(=O)NNC(=O)c1c(O)c2ccccc2n(Cc2ccccc2)c1=O [Compound 46, 1-Benzyl-N′-dodecanoyl-4-hydroxy-2-oxo-1,2-dihydroquinoline-3-carbohydrazide] and CCCCCCCCCCCC(=O)NNC(=O)c1c(O)c2ccc(Cl)cc2n(Cc2ccccc2)c1=O [Compound 62, 1-Benzyl-7-chloro-N′-dodecanoyl-4-hydroxy-2-oxo-1,2-dihydroquinoline-3-carbohydrazide] are within error of each other in IC50: 5.51 ± 0.27 µM for the first, 5.99 ± 0.22 µM for the second.

CCCCCCCC(=O)NNC(=O)c1c(O)c2cc(Br)ccc2n(C)c1=O [Compound 49, 6-Bromo-4-hydroxy-1-methyl-N′-octanoyl-2-oxo-1,2-dihydroquinoline-3-carbohydrazide] and CCCCCCCCCCCC(=O)NNC(=O)c1c(O)c2cc(Br)ccc2n(C)c1=O [Compound 50, 6-Bromo-N′-dodecanoyl-4-hydroxy-1-methyl-2-oxo-1,2-dihydroquinoline-3-carbohydrazide] are within 1.5-fold of each other in IC50: 6.28 ± 0.33 µM for the first, 4.28 ± 0.5 µM for the second.

Compared with CCCCCCCC(=O)NNC(=O)c1c(O)c2cc(Br)ccc2n(CC)c1=O [Compound 51, 6-Bromo-1-ethyl-4-hydroxy-N′-octanoyl-2-oxo-1,2-dihydroquinoline-3-carbohydrazide], CCCCCCCCCCCC(=O)NNC(=O)c1c(O)c2cc(Br)ccc2n(CC)c1=O [Compound 52, 6-Bromo-N′-dodecanoyl-1-ethyl-4-hydroxy-2-oxo-1,2-dihydroquinoline-3-carbohydrazide] is 3.7-fold lower in IC50: 7.34 ± 0.2 µM for the first, 2.01 ± 0.18 µM for the second.

CCCCCCCC(=O)NNC(=O)c1c(O)c2cc(Cl)ccc2n(C)c1=O [Compound 53, 6-Chloro-4-hydroxy-1-methyl-N′-octanoyl-2-oxo-1,2-dihydroquinoline-3-carbohydrazide] and CCCCCCCC(=O)NNC(=O)c1c(O)c2ccc(Cl)cc2n(C)c1=O [Compound 57, 7-Chloro-4-hydroxy-1-methyl-N′-octanoyl-2-oxo-1,2-dihydroquinoline-3-carbohydrazide] are within 1.5-fold of each other in IC50: 8.48 ± 0.3 µM for the first, 6.66 ± 0.29 µM for the second.

CCCCCCCCCCCC(=O)NNC(=O)c1c(O)c2cc(Cl)ccc2n(C)c1=O [Compound 54, 6-Chloro-N′-dodecanoyl-4-hydroxy-1-methyl-2-oxo-1,2-dihydroquinoline-3-carbohydrazide] and CCCCCCCCCCCC(=O)NNC(=O)c1c(O)c2ccc(Cl)cc2n(C)c1=O [Compound 58, 7-Chloro-N′-dodecanoyl-4-hydroxy-1-methyl-2-oxo-1,2-dihydroquinoline-3-carbohydrazide] are within 1.5-fold of each other in IC50: 5.95 ± 0.49 µM for the first, 4.03 ± 0.19 µM for the second.

Compared with CCCCCCCC(=O)NNC(=O)c1c(O)c2cc(Cl)ccc2n(CC)c1=O [Compound 55, 6-Chloro-1-ethyl-4-hydroxy-N′-octanoyl-2-oxo-1,2-dihydroquinoline-3-carbohydrazide], CCCCCCCC(=O)NNC(=O)c1c(O)c2ccc(Cl)cc2n(CC)c1=O [Compound 59, 7-Chloro-1-ethyl-4-hydroxy-N′-octanoyl-2-oxo-1,2-dihydroquinoline-3-carbohydrazide] is 2-fold lower in IC50: 9.42 ± 0.23 µM for the first, 4.83 ± 0.23 µM for the second. The second is the more potent here.

CCCCCCCCCCCC(=O)NNC(=O)c1c(O)c2cc(Cl)ccc2n(CC)c1=O [Compound 56, 6-Chloro-N′-dodecanoyl-1-ethyl-4-hydroxy-2-oxo-1,2-dihydroquinoline-3-carbohydrazide] and CCCCCCCCCCCC(=O)NNC(=O)c1c(O)c2ccc(Cl)cc2n(CC)c1=O [Compound 60, 7-Chloro-N′-dodecanoyl-1-ethyl-4-hydroxy-2-oxo-1,2-dihydroquinoline-3-carbohydrazide] are within 1.5-fold of each other in IC50: 3.18 ± 0.28 µM for the first, 2.48 ± 0.26 µM for the second.

CCCCCCCC(=O)NNC(=O)c1c(O)c2ccc(Cl)cc2n(Cc2ccccc2)c1=O [Compound 61, 1-Benzyl-7-chloro-4-hydroxy-N′-octanoyl-2-oxo-1,2-di hydroquinoline-3-carbohydrazide] and CCCCCCCCCCCC(=O)N(Cc1ccccc1)NC(=O)c1c(O)c2ccccc2n(Cc2ccccc2)c1=O [Compound 63, N′-1-dibenzyl-N′-dodecanoyl-4-hydroxy-2-oxo-1,2-dihydroquinoline-3-carbohydrazide] are within 1.5-fold of each other in IC50: 5.96 ± 0.17 µM for the first, 6.84 ± 0.51 µM for the second.

target: GSK-3β (Homo sapiens, UniProt P49841); test: Kinetic study varying ATP concentration (ADP-Glo Kinase Assay, double-reciprocal plot); format: biochemical; details: ATP 1 to 50 μM, GS-2 12.5 μM, inhibitor 5 to 10 μM
Procedure: The ATP concentrations were varied from 1 to 50 µM, whereas the concentration of the GS-2 peptide was kept constant at 12.5 µM. The concentrations of inhibitor (compound 6) used are shown in the plot.
The kinetic studies conducted by varying the ATP concentration from 1 to 50 µM, and the concentration of inhibitor 6 from 5 to 10 µM, were performed using the ADP-Glo™ Kinase Assay.

CCCCCCCCCCCC(=O)NNC(=O)c1c(O)c2ccccc2n(CC)c1=O [Compound 6, N′-Dodecanoyl-1-ethyl-4-hydroxy-2-oxo-1,2-dihydroquinoline-3-carbohydrazide] was tested, and the “mode of inhibition versus ATP” value was “non-ATP-competitive inhibitor”.

test system: RAW 264.7 cells; test: Anti-inflammatory activity: nitrite production (Griess method) in LPS-stimulated RAW 264.7 cells; format: cell-based; details: 1.25, 2.5, 5 and 10 μM; 1 h pre-treatment, 0.4 μg/ml LPS 24 h
Procedure: A monolayer culture of RAW 264.7 cells growing in 96-well plates is used. The cells are treated for 1 h with the compounds evaluated. Subsequently, the inflammatory activity is stimulated with 0.4 µg/ml of LPS for 24 h. Once this time has elapsed, the production of nitrites is evaluated by means of the Griess method. Briefly, 50 µl of supernatant are transferred to 96-well plates and 50 µl of Griess reagent are added. The mixture is incubated for 15 minutes at room temperature and the absorbance at 520 nm is measured in a microplate reader.

For CCCCCCCCCCCC(=O)NNC(=O)c1c(O)c2ccccc2n(CC)c1=O [Compound 6, N′-Dodecanoyl-1-ethyl-4-hydroxy-2-oxo-1,2-dihydroquinoline-3-carbohydrazide], the “decrease in nitrite release” value was “dose-dependent effect on the decrease in nitrite release; also recorded: decrease in inflammatory activity”.

test system: GSK-3β; test: Study of the inhibition of GSK-3β as a function of enzyme-inhibitor pre-incubation time; format: biochemical, human; details: different enzyme incubation times, two inhibitor concentrations
Procedure: In order to determine the binding mode of these compounds, different kinetic studies were performed, varying the reaction times and the ATP concentration and the substrate concentration.

CCCCCCCCCCCC(=O)NNC(=O)c1c(O)c2ccccc2n(CC)c1=O [Compound 6, N′-Dodecanoyl-1-ethyl-4-hydroxy-2-oxo-1,2-dihydroquinoline-3-carbohydrazide] was tested, and the “reversibility of enzyme inhibition” value was “reversible inhibitor”.
